The assay relates to YAP/TAZ-TEAD transcription. As to the kind of experiment: Reporter gene assay for measuring the inhibition of YAP/TAZ-TEAD transcription (TEAD-responsive element luciferase reporter, Hek293T cells). Conditions: Homo sapiens, HEK-293T, 24 h, Hek293T cells transfected with TEAD-responsive element luciferase reporter, 24 hours incubation. The assay is classed as cell-based. On the procedure: Hek293T cells were cultured in DMEM supplemented with 10% fetal bovine serum, Sodium pyruvate, Sodium bicarbonate, L-glutamine. The cells were harvested and transiently transfected with TEAD-responsive element luciferase reporter. Transfected cells were plated in 384-well plate containing pre-diluted compounds. After 24 hours incubation at 37° C./5% CO2, assay plates were cooled to room temperature and levelled to an equal volume per well, prior to the addition of 25 uL luciferase substrate SteadyLite (Perkin Elmer)/well. The plate was shaken for 10 min at 600 rpm, centrifuged for 1 min at 500 rpm and measured with an Envision reader (PerkinElmer). The amount of relative light units produced by the TEAD reporter was used to calculate the percentage of inhibition.
The percent of reporter inhibition was calculated in the presence of a positive control inhibitor (100% inhibition) versus a condition with the presence of the vehicle basal activity of the reporter (0% inhibition). The ability of a test compound to inhibit this activity was determined as: Percentage inhibition=[1-((RLU determined in the presence of vehicle−RLU determined for sample with test compound present) divided by (RLU determined in the presence of vehicle−RLU determined for sample with positive control inhibitor))]*100.
The activities of example compounds tested are depicted in Table 3. The activity ranges A, B and C refer to IC50 values in the reporter gene assay as follows: “A”: IC50<1 μM; “B”: 1 μM≤IC50 10 μM and “C”: IC50>10 μM; NT=not tested.
(In a reporter assay the amount or activity of a reporter protein is the signal.)

For orientation: IC50 means the concentration that inhibits the measured activity by half. Read a high IC50 as a need for much substance.

In turn, `O=C1CC[C@H](C(=O)NCC2Cc3ncccc3N(c3ccc(C(F)(F)F)cc3)C2)N1` (stereo partly drawn) [Cpd. No. 29, (2R)-5-oxo-N-((1-(4-(trifluoromethyl)phenyl)-1,2,3,4-tetrahydro-1,5-naphthyridin-3-yl)methyl)pyrrolidine-2-carboxamide] came in with an IC50 below 1000 nM.

`Cn1cncc1C(=O)NCC1Cc2ncccc2N(c2ccc(C(F)(F)F)cc2)C1` (centres unmarked) [Cpd. No. 30, 1-methyl-N-((1-(4-(trifluoromethyl)phenyl)-1,2,3,4-tetrahydro-1,5-naphthyridin-3-yl)methyl)-1H-imidazole-5-carboxamide] gave an IC50 above 10000 nM.

Regarding `O=C1CCCN1CC1Cc2ncccc2N(c2ccc(C(F)(F)F)cc2)C1` (centres unmarked) [Cpd. No. 31, 1-((1-(4-(trifluoromethyl)phenyl)-1,2,3,4-tetrahydro-1,5-naphthyridin-3-yl)methyl)pyrrolidin-2-one], the IC50 was above 10000 nM.

Molecule `CC(=O)NCc1cc2c(c(-c3ccc(C(F)(F)F)cc3)c1)CNCC2` [Cpd. No. 32, N-((8-(4-(trifluoromethyl)phenyl)-1,2,3,4-tetrahydroisoquinolin-6-yl)methyl)acetamide] yielded an IC50 above 10000 nM.

As to `C=CC(=O)NCc1cc2c(c(-c3ccc(C(F)(F)F)cc3)c1)CNCC2` [Cpd. No. 33, N-((8-(4-(trifluoromethyl)phenyl)-1,2,3,4-tetrahydroisoquinolin-6-yl)methyl)acrylamide], the half-inhibitory concentration (IC50) was below 1000 nM.

In turn, `[2H]C([2H])([2H])C(=O)NCC1Cc2ncccc2N(c2ccc(C(F)(F)F)cc2)C1` (centres unmarked) [Cpd. No. 34, N-((1-(4-(trifluoromethyl)phenyl)-1,2,3,4-tetrahydro-1,5-naphthyridin-3-yl)methyl)acetamide-2,2,2-d3] gave an IC50 below 1000 nM.

Molecule `O=C(Cc1ccccc1)NCC1Cc2ncccc2N(c2ccc(C(F)(F)F)cc2)C1` (centres unmarked) [Cpd. No. 35, 2-phenyl-N-((1-(4-(trifluoromethyl)phenyl)-1,2,3,4-tetrahydro-1,5-naphthyridin-3-yl)methyl)acetamide] displayed an IC50 of 1000 to 10000 nM.

`C=CC(=O)N(CC(=O)O)Cc1cc2c(c(-c3ccc(C(F)(F)F)cc3)c1)CNCC2` [Cpd. No. 36, N-acryloyl-N-((8-(4-(trifluoromethyl)phenyl)-1,2,3,4-tetrahydroisoquinolin-6-yl)methyl)glycine]: the IC50 was above 10000 nM.

`CC(=O)N(CC(=O)O)Cc1cc2c(c(-c3ccc(C(F)(F)F)cc3)c1)CNCC2` [Cpd. No. 37, N-acetyl-N-((8-(4-(trifluoromethyl)phenyl)-1,2,3,4-tetrahydroisoquinolin-6-yl)methyl)glycine] displayed an IC50 above 10000 nM.

In the case of `O=C(CC(F)(F)F)NCC1Cc2ncccc2N(c2ccc(C(F)(F)F)cc2)C1` (centres unmarked) [Cpd. No. 38, 3,3,3-trifluoro-N-((1-(4-(trifluoromethyl)phenyl)-1,2,3,4-tetrahydro-1,5-naphthyridin-3-yl)methyl)propanamide], the IC50 was below 1000 nM.

Regarding `CC(C)C(=O)NCC1Cc2ncccc2N(c2ccc(C(F)(F)F)cc2)C1` (centres unmarked) [Cpd. No. 39, N-((1-(4-(trifluoromethyl)phenyl)-1,2,3,4-tetrahydro-1,5-naphthyridin-3-yl)methyl)isobutyramide], the half-maximal inhibitory concentration (IC50) is below 1000 nM.

`O=C(NCC1Cc2ncccc2N(c2ccc(C(F)(F)F)cc2)C1)c1ccccc1` (centres unmarked) [Cpd. No. 40, N-((1-(4-(trifluoromethyl)phenyl)-1,2,3,4-tetrahydro-1,5-naphthyridin-3-yl)methyl)benzamide] registered a half-maximal inhibitory concentration (IC50) of 1000 to 10000 nM.

In turn, `C=CC(=O)N1CCN(C2Cc3ccccc3N(c3ccc(C(F)(F)F)cc3)C2)CC1` (centres unmarked) [Cpd. No. 41, 1-(4-(1-(4-(trifluoromethyl)phenyl)-1,2,3,4-tetrahydroquinolin-3-yl)piperazin-1-yl)prop-2-en-1-one] returned an IC50 below 1000 nM.

Take `CC(=O)NCC1Cc2nc(C(F)(F)F)ccc2N(c2ccc(C(F)(F)F)cc2)C1` (centres unmarked) [Cpd. No. 42, N-((6-(trifluoromethyl)-1-(4-(trifluoromethyl)phenyl)-1,2,3,4-tetrahydro-1,5-naphthyridin-3-yl)methyl)acetamide]: the IC50 is below 1000 nM.

`CNC(=O)NCC1Cc2ncccc2N(c2ccc(C(F)(F)F)cc2)C1` (centres unmarked) [Cpd. No. 43, 1-methyl-3-((1-(4-(trifluoromethyl)phenyl)-1,2,3,4-tetrahydro-1,5-naphthyridin-3-yl)methyl)urea] showed an IC50 below 1000 nM.

Molecule `CC(=O)NCC1Cc2ncc(Br)cc2N(c2ccc(C(F)(F)F)cc2)C1` (centres unmarked) [Cpd. No. 44, N-((7-bromo-1-(4-(trifluoromethyl)phenyl)-1,2,3,4-tetrahydro-1,5-naphthyridin-3-yl)methyl)acetamide] had an IC50 below 1000 nM.

Molecule `CC(=O)NCC1Cc2nc(N)ccc2N(c2ccc(C(F)(F)F)cc2)C1` (centres unmarked) [Cpd. No. 45, N-((6-amino-1-(4-(trifluoromethyl)phenyl)-1,2,3,4-tetrahydro-1,5-naphthyridin-3-yl)methyl)acetamide] had an IC50 below 1000 nM.

In turn, `CC(=O)NCc1cc2c(c(-c3ccc(C(F)(F)F)cc3)c1)CN(C)CC2` [Cpd. No. 46, N-((2-methyl-8-(4-(trifluoromethyl)phenyl)-1,2,3,4-tetrahydroisoquinolin-6-yl)methyl)acetamide] yielded an IC50 above 10000 nM.

Molecule `CC(=O)NCC1(C)Cc2ncccc2N(c2ccc(C(F)(F)F)cc2)C1` (centres unmarked) [Cpd. No. 47, N-((3-methyl-1-(4-(trifluoromethyl)phenyl)-1,2,3,4-tetrahydro-1,5-naphthyridin-3-yl)methyl)acetamide] gave an IC50 below 1000 nM.

In turn, `CC(=O)NCC1Cc2c(ccc(=O)n2C)N(c2ccc(C(F)(F)F)cc2)C1` (centres unmarked) [Cpd. No. 48, N-((5-methyl-6-oxo-1-(4-(trifluoromethyl)phenyl)-1,2,3,4,5,6-hexahydro-1,5-naphthyridin-3-yl)methyl)acetamide] yielded an IC50 above 10000 nM.

`CC(=O)NCC1Cc2ncc(N)cc2N(c2ccc(C(F)(F)F)cc2)C1` (centres unmarked) [Cpd. No. 49, N-((7-amino-1-(4-(trifluoromethyl)phenyl)-1,2,3,4-tetrahydro-1,5-naphthyridin-3-yl)methyl)acetamide]: the IC50 lay within 1000 to 10000 nM.

On to `CC(=O)NCC1Cc2ncc(F)cc2N(c2ccc(C(F)(F)F)cc2)C1` (centres unmarked) [Cpd. No. 50, N-((7-fluoro-1-(4-(trifluoromethyl)phenyl)-1,2,3,4-tetrahydro-1,5-naphthyridin-3-yl)methyl)acetamide], for which the IC50 was below 1000 nM.

In the case of `CC(=O)NCC1Cc2ncc(Cl)cc2N(c2ccc(C(F)(F)F)cc2)C1` (centres unmarked) [Cpd. No. 51, N-((7-chloro-1-(4-(trifluoromethyl)phenyl)-1,2,3,4-tetrahydro-1,5-naphthyridin-3-yl)methyl)acetamide], the IC50 was below 1000 nM.

On to `CC(=O)NCC1Cc2nc(N(C)C)ccc2N(c2ccc(C(F)(F)F)cc2)C1` (centres unmarked) [Cpd. No. 52, N-((6-(dimethylamino)-1-(4-(trifluoromethyl)phenyl)-1,2,3,4-tetrahydro-1,5-naphthyridin-3-yl)methyl)acetamide], for which the IC50 was below 1000 nM.

In turn, `CC(=O)NCC1Cc2ncccc2N(c2ccc(C(F)(F)F)cn2)C1` (centres unmarked) [Cpd. No. 53, N-((1-(5-(trifluoromethyl)pyridin-2-yl)-1,2,3,4-tetrahydro-1,5-naphthyridin-3-yl)methyl)acetamide] yielded an IC50 of 1000 to 10000 nM.

As for `CC(=O)NCC1Cc2c(ccn(C)c2=O)N(c2ccc(C(F)(F)F)cc2)C1` (centres unmarked) [Cpd. No. 54, N-((6-methyl-5-oxo-1-(4-(trifluoromethyl)phenyl)-1,2,3,4,5,6-hexahydro-1,6-naphthyridin-3-yl)methyl)acetamide], the IC50 is below 1000 nM.
